Laboratory results reported in ChEMBL document CHEMBL3507680, “University of Dundee, Gates Library screen for HepG2 cell viability”.

Assay: Human HepG2 cell viability assay in 384 well format
Type: toxicity, cell-based
Set-up: dose 125 nL, time 70.5 hour; concentration not given beside the values
Details: HepG2 cells, read-out: Inhibition

Cc1cc(NC(=O)CN2CCCC(Cn3cncn3)C2)no1 (stereo unspecified)
cytotoxicity at 70.5 h: -3.46%

CC(C)(C)NS(=O)(=O)c1ccccc1CNCc1ccccc1
cytotoxicity at 70.5 h: -5.72%

CC(C)c1cc(NC(=O)CN2CCCC(Cn3cncn3)C2)on1 (stereo unspecified)
cytotoxicity at 70.5 h: 17.9%

O=C(Nc1ccnc2ccnn12)c1ccc(NC2CC2)nc1
cytotoxicity at 70.5 h: -1.35%

Cc1cccn2cc(CN3CCCC(c4noc(C5CC5)n4)C3)nc12 (stereo unspecified)
cytotoxicity at 70.5 h: 5.44%

O=C(c1[nH]nc(C2CC2)c1Cl)N1CCN(C2CC2)C(=O)C1
cytotoxicity at 70.5 h: -1.73%

Cc1nn(C)c(C)c1OCC(=O)N1CCCC1
cytotoxicity at 70.5 h: -6%

O=c1[nH]c2ccccc2c(=O)n1Cc1nnnn1C1CC1
cytotoxicity at 70.5 h: 2.86%

Cc1ccc(C(C)(O)CNC(=O)c2sccc2OC(F)F)o1 (stereo unspecified)
cytotoxicity at 70.5 h: -12%

Cc1ccc(C(C)(O)CNC(=O)c2scnc2C)o1 (stereo unspecified)
cytotoxicity at 70.5 h: -3.68%

CCC(C)(C)C(=O)NCCCOC1CCOC1 (stereo unspecified)
cytotoxicity at 70.5 h: 2.9%

O=C(c1ncoc1C1CCCO1)N1CC2(CCCC2)c2ccccc21 (stereo unspecified)
cytotoxicity at 70.5 h: -6.29%

COCCN(C)c1ccc(NCc2cccnc2)nc1
cytotoxicity at 70.5 h: 5.65%

O=C(c1cc[nH]c(=O)c1)N1CCn2c(nnc2-c2ccccc2)C1
cytotoxicity at 70.5 h: -4.86%

CCOC(C)c1nc(Cn2cc(C(=O)NC)ccc2=O)cs1 (stereo unspecified)
cytotoxicity at 70.5 h: -4.29%

Cc1cnn(C2CCCN(C(=O)c3c(C)oc(C)c3C)C2)c1 (stereo unspecified)
cytotoxicity at 70.5 h: -0.501%

CNC(=O)Cc1ccccc1NC(=O)C1CCCC1
cytotoxicity at 70.5 h: 29.2%

CCC1CN(c2cnn(-c3ccccc3)c(=O)c2Cl)CCO1 (stereo unspecified)
cytotoxicity at 70.5 h: -12.4%

COc1ccc(C)cc1CCNS(C)(=O)=O
cytotoxicity at 70.5 h: -10.4%

COCCOCCNS(=O)(=O)C1CS(=O)(=O)c2ccccc21 (stereo unspecified)
cytotoxicity at 70.5 h: -7.79%

CCC(=O)N1CSCC1C(=O)Nc1ccccc1-c1cccs1 (stereo unspecified)
cytotoxicity at 70.5 h: -9.09%

CCC(=O)N1CCN(C(=O)Nc2ccccc2-c2cccs2)CC1
cytotoxicity at 70.5 h: -5.63%

Cn1ccnc1CCNS(=O)(=O)Cc1cccc(C#N)c1
cytotoxicity at 70.5 h: -8.33%

Cc1nc(C2(NCc3ccc(C#N)cc3F)CCCC2)no1
cytotoxicity at 70.5 h: -18.6%

CS(=O)(=O)N1CCC(CSc2ccccc2)C1 (stereo unspecified)
cytotoxicity at 70.5 h: -13.4%

O=C(NC1CCCN(c2ccc(OC(F)F)cc2)C1)c1cnccn1 (stereo unspecified)
cytotoxicity at 70.5 h: -6.56%

CC(C)NC(=O)CC(C)NC(=O)N(C)Cc1cc(Cl)cn1C (stereo unspecified)
cytotoxicity at 70.5 h: -8.56%

O=C(Nc1ccccc1-c1cccs1)N1CCN(CC(F)F)CC1
cytotoxicity at 70.5 h: -11.6%

Cc1cccc(C)c1CNC1(CCO)CCOCC1
cytotoxicity at 70.5 h: -16%

O=C(Nc1ccccc1-c1cccs1)N1CCOCC1
cytotoxicity at 70.5 h: -13.2%

CCCN(CCC)S(=O)(=O)NCCc1cc(C)ccc1OC
cytotoxicity at 70.5 h: -8.2%

CN(Cc1ccco1)C(=O)NCC(c1cccs1)N(C)C (stereo unspecified)
cytotoxicity at 70.5 h: -11.2%

CCN(Cc1ccco1)C(=O)NCC(c1cccs1)N(C)C (stereo unspecified)
cytotoxicity at 70.5 h: 20.6%

CCc1ccc(CNc2ccccc2CN2CCC(O)CC2)o1
cytotoxicity at 70.5 h: -9.23%

COc1cc(OC)cc(C2(O)CCN(Cc3ncc(C)o3)CC2)c1
cytotoxicity at 70.5 h: 18.5%

CC(C)c1nc2c(n1C)CCN(CCc1ccccn1)C2
cytotoxicity at 70.5 h: -4.15%

CCCS(=O)(=O)N1CCCC1c1cccc(N(C)C)c1 (stereo unspecified)
cytotoxicity at 70.5 h: -11.2%

CCN(CC)C(=O)C1CCN(c2ccc(Cl)cc2C#N)CC1
cytotoxicity at 70.5 h: 10.1%

Cc1ccc(C2CSCCN2C(=O)c2ccnc(N(C)C)c2)o1 (stereo unspecified)
cytotoxicity at 70.5 h: 18.6%

N#Cc1ccc(CN2CCNC(=O)C2c2cccs2)cc1 (stereo unspecified)
cytotoxicity at 70.5 h: -3.15%

CCCC(=O)N(C)c1cc(C#N)c2ccccc2n1
cytotoxicity at 70.5 h: -2.82%

CN(C(=O)CCc1nc(C2CC2)no1)c1cc(C#N)c2ccccc2n1
cytotoxicity at 70.5 h: 0.74%

Cc1ccc(C2CSCCN2C(=O)c2cccs2)o1 (stereo unspecified)
cytotoxicity at 70.5 h: 19.9%

Cc1cc(F)ccc1S(=O)(=O)N1CCN(C)c2ccncc21
cytotoxicity at 70.5 h: 4.79%

O=C(NCC(CO)Cc1ccc(Cl)cc1)c1ccncc1F (stereo unspecified)
cytotoxicity at 70.5 h: -1.03%

CNC(=O)c1cc(C)ccc1NCc1cn2cc(C)ccc2n1
cytotoxicity at 70.5 h: -2.87%

COCCNC(=O)N1CCCCC1CNC(=O)Nc1ccccc1 (stereo unspecified)
cytotoxicity at 70.5 h: -3.88%

OC(COCc1cccs1)Cn1cc(-n2cccc2)cn1 (stereo unspecified)
cytotoxicity at 70.5 h: 2.56%

CC(=O)Nc1cc2c(cc1C)OCO2
cytotoxicity at 70.5 h: 21.5%

CC1c2cccn2CCN1C(=O)CCc1nc(C2CC2)no1 (stereo unspecified)
cytotoxicity at 70.5 h: -8.57%

CC(=O)N1CCN(C(C)c2ccc(Br)cc2)CC1 (stereo unspecified)
cytotoxicity at 70.5 h: -0.505%

COCCNC(=O)N1CCCC1COc1ccccc1 (stereo unspecified)
cytotoxicity at 70.5 h: -8.27%

CC(=O)N1CCSCC1c1ccc(C)o1 (stereo unspecified)
cytotoxicity at 70.5 h: -8.59%

OCCN1CCN(CCOCC(F)(F)F)CC1
cytotoxicity at 70.5 h: 10.9%

Cc1cccc(CN(Cc2ccccn2)S(=O)(=O)N(C)C)c1
cytotoxicity at 70.5 h: 18.6%

Fc1ccc(OCCNC2CCN(Cc3ccncc3)CC2)c(F)c1
cytotoxicity at 70.5 h: 12.1%

Cc1cc(NCc2ccc(S(N)(=O)=O)cc2)nc(C)n1
cytotoxicity at 70.5 h: -13.8%

Cc1nc(C(C)C)sc1C(=O)NCC(C)(C)N1CCOCC1
cytotoxicity at 70.5 h: -8.1%

CC(C)C(Sc1nnc(NC2CC2)s1)C(=O)NCc1cccnc1 (stereo unspecified)
cytotoxicity at 70.5 h: -15.5%

CCNc1nnc(SC(C(=O)NCc2cccnc2)C(C)C)s1 (stereo unspecified)
cytotoxicity at 70.5 h: -14.3%

N#Cc1ccc(NC2CCN(CC(F)F)CC2)c(F)c1
cytotoxicity at 70.5 h: -15.5%

N#Cc1ccc(NC2CCN(Cc3ccccn3)CC2)c(F)c1
cytotoxicity at 70.5 h: -9.28%

CC(C)C(Sc1cccs1)C(=O)NCc1cccnc1 (stereo unspecified)
cytotoxicity at 70.5 h: -14.6%

CSC(C)C(=O)NS(=O)(=O)c1ccc(F)c(C(F)(F)F)c1 (stereo unspecified)
cytotoxicity at 70.5 h: 22.2%

O=C(NCCc1nncn1C1CC1)c1cc2ccccn2c1
cytotoxicity at 70.5 h: -10.9%

CC(C)(C)C(CCO)NC(=O)Nc1ccccc1 (stereo unspecified)
cytotoxicity at 70.5 h: -9.49%

COc1ccccc1CN(CC1CCCO1)C(=O)c1csnn1 (stereo unspecified)
cytotoxicity at 70.5 h: -12.2%

CCN(Cc1ccoc1)C(=O)C1CCN(C(=O)OC(C)(C)C)C1 (stereo unspecified)
cytotoxicity at 70.5 h: 18.9%

Cc1nc(C2CN(Cc3ccc(F)cc3Br)CCO2)no1 (stereo unspecified)
cytotoxicity at 70.5 h: -5.56%

CCOCCN1CCN(CCOCC(F)(F)F)CC1
cytotoxicity at 70.5 h: -8.54%

CCOCCN(C)C(=O)Nc1cccc2c1CCN(CC)C2
cytotoxicity at 70.5 h: 10.2%

CC(C)CC(NC(=O)CSc1ccc(F)c(Cl)c1)C(=O)O (stereo unspecified)
cytotoxicity at 70.5 h: -18.4%

O=S(=O)(NCc1ccc(S(=O)(=O)N2CCCC2)s1)c1ccc(Cl)cc1
cytotoxicity at 70.5 h: -12.5%

O=S(=O)(NCc1ccc(S(=O)(=O)N2CCCC2)s1)c1ccc(Cl)c(Cl)c1
cytotoxicity at 70.5 h: -22.7%

NC(=O)CNC(=O)c1ccc(CNCc2ccc(F)cc2F)cc1
cytotoxicity at 70.5 h: -23.7%

NC(=O)CNC(=O)c1ccc(CNCc2ccc(Cl)cc2Cl)cc1
cytotoxicity at 70.5 h: -28%

CN(C(=O)Cn1nnnc1C(C)(C)C)c1ccccc1
cytotoxicity at 70.5 h: -19.5%

Cn1c(CCN2CCN(c3ccc(O)cc3)CC2)nc2ccccc21
cytotoxicity at 70.5 h: 14.6%

CC(C)c1noc(OCc2cccc(C#N)c2)n1
cytotoxicity at 70.5 h: -11.8%

CC(C)c1noc(OCc2cccc(S(=O)(=O)N(C)C)c2)n1
cytotoxicity at 70.5 h: -17.9%

O=C(NCCCc1nc(=O)[nH][nH]1)c1ccc(Cl)cn1
cytotoxicity at 70.5 h: -15.2%

Cc1cccc2c1C(=O)NC1(CCOCC1)N2
cytotoxicity at 70.5 h: -13.5%

O=S(=O)(Cc1ccc(F)c(Cl)c1)NCCOc1cccnc1
cytotoxicity at 70.5 h: 3.53%

CCc1nc(CCNc2ccc(S(N)(=O)=O)cc2C#N)cs1
cytotoxicity at 70.5 h: -21%

CNS(=O)(=O)CCCN(C)Cc1cc(C)ccc1OC
cytotoxicity at 70.5 h: -13.2%

Cc1ccc(SC2CCCC2)c(C(=O)NCc2n[nH]c(=O)[nH]2)c1
cytotoxicity at 70.5 h: -11.2%

Fc1ccc(C(NCc2nnc(C3CC3)o2)C2CCC2)cc1 (stereo unspecified)
cytotoxicity at 70.5 h: -4.6%

COCC(=O)NC1(c2cccc(C(F)(F)F)c2)CCC1
cytotoxicity at 70.5 h: -14.5%

CN(CCN1CCOC1=O)CC(=O)Nc1ccc(Cl)c(Cl)c1
cytotoxicity at 70.5 h: -20.1%

CC(CNC(=O)c1ccn(-c2ccc(F)cc2)n1)Cn1cccn1 (stereo unspecified)
cytotoxicity at 70.5 h: -22.8%

Fc1ccc(C(NCc2nnc(-c3ccco3)o2)C2CCC2)cc1 (stereo unspecified)
cytotoxicity at 70.5 h: -12%

CO[C@H]1CN(C(=O)OC(C)(C)C)CC1NCc1ccco1 (stereo partly specified)
cytotoxicity at 70.5 h: -24.9%

CO[C@H]1CN(C(=O)OC(C)(C)C)CC1NCc1ccoc1 (stereo partly specified)
cytotoxicity at 70.5 h: -13.8%

CC1CCCN(C(=O)c2ncncc2Cl)C1 (stereo unspecified)
cytotoxicity at 70.5 h: 12.9%

O=C(c1ccccc1)N1CCCN(C(=O)c2ncncc2Cl)CC1
cytotoxicity at 70.5 h: 15.9%

COCc1ccccc1C(=O)NCCCN1CCCC1C(=O)N(C)C (stereo unspecified)
cytotoxicity at 70.5 h: 7.28%

COc1ncccc1C(=O)NCC1Cc2ccccc2O1 (stereo unspecified)
cytotoxicity at 70.5 h: -6.43%

O=C(NCCCn1nc2ccccn2c1=O)NC1CCC(O)CC1 (stereo unspecified)
cytotoxicity at 70.5 h: 9.94%

CC(C)S(=O)(=O)NCC1CCCN(C(=O)c2cccnc2)C1 (stereo unspecified)
cytotoxicity at 70.5 h: -7.06%

Cc1cccc(CNCc2c(C)nn(C)c2N2CCOCC2)n1
cytotoxicity at 70.5 h: -2.64%

O=C(CCc1nccs1)N1CCCC(N2CCNC2=O)C1 (stereo unspecified)
cytotoxicity at 70.5 h: 0.762%

Cc1cc(N2CCC(N(C)C(=O)c3ccccc3)CC2)nc(C)n1
cytotoxicity at 70.5 h: -0.672%

CN(C)C(CNC(=O)c1cccc(-n2cnnn2)c1)c1ccccc1Cl (stereo unspecified)
cytotoxicity at 70.5 h: -2.81%

Cc1csc(N2CCN(Cc3cnc(C)s3)CC2C)n1 (stereo unspecified)
cytotoxicity at 70.5 h: -2.09%

CCc1ccc(C(=O)Nc2ccc(CC3CC(=O)NC3=O)cc2)cc1 (stereo unspecified)
cytotoxicity at 70.5 h: 1.34%

CCCC(C)(C)NC(=O)c1ccc(CC2CC(=O)NC2=O)cc1 (stereo unspecified)
cytotoxicity at 70.5 h: 0.713%

Cc1cn(-c2ccccc2)nc1NS(=O)(=O)c1cccc(C(=O)O)c1
cytotoxicity at 70.5 h: -1.1%

CC1CN(C)c2ccccc2CN1C(=O)CSc1ccncc1 (stereo unspecified)
cytotoxicity at 70.5 h: 1.51%

CCN1CCCC1CN(CCN(C)C)S(=O)(=O)c1ccc(C#N)cc1 (stereo unspecified)
cytotoxicity at 70.5 h: 2.57%

CCN(Cc1cccnc1)CC1CCCO1 (stereo unspecified)
cytotoxicity at 70.5 h: -0.83%

Cc1cnn(CC2CN(CCc3ccncc3)CCO2)c1 (stereo unspecified)
cytotoxicity at 70.5 h: 0.973%

Cc1nc(C)n(CC2CN(CCc3ccncc3)CCO2)n1 (stereo unspecified)
cytotoxicity at 70.5 h: -0.163%

C1CCCN(c2nc(C3CC3)ns2)CC1
cytotoxicity at 70.5 h: 15.3%

CCc1nc(C2CCCN2CC(=O)Nc2c(C)nn(C)c2C)no1 (stereo unspecified)
cytotoxicity at 70.5 h: -3.18%

Cc1nc(C)n(CC2CCCN2CC(=O)NCc2ccco2)n1 (stereo unspecified)
cytotoxicity at 70.5 h: -2.21%

Cc1n[nH]c(C)c1C1COCCN1C(=O)Cc1cccc(F)c1 (stereo unspecified)
cytotoxicity at 70.5 h: -4.4%

Cc1n[nH]c(C)c1C1CCCN1C(=O)NCCSC(C)(C)C (stereo unspecified)
cytotoxicity at 70.5 h: -7.87%

Cc1csc(N2CCN(CCc3ccccn3)CC2C)n1 (stereo unspecified)
cytotoxicity at 70.5 h: -10.7%

CCCN1CCN(Cc2nccn2CC)C(C)C1 (stereo unspecified)
cytotoxicity at 70.5 h: 19.6%

O=C(C1CCC1)N1CCCC1c1nnc2n1CCCCC2 (stereo unspecified)
cytotoxicity at 70.5 h: 9.95%

O=C(NCCCOCC1CCCO1)c1cccnc1N1CCCC1 (stereo unspecified)
cytotoxicity at 70.5 h: 1.79%
